Data as given in US20080194584A1, “Nitrogen Heteroaromatic Compounds Which Bind To The Active Site Of Protein Kinase Enzymes” (priority 2004, published 2008).

Test system: Rho kinase (ROK, ROCK)
Assay: Rho kinase inhibitory activity (ROK activity)
Format: biochemical
Set-up: key: +: active; ++: more active; +++: very active
Conditions: assays conducted at 1-100 μM

Row | ROK activity | ROK activity (listed as N-[3,4′]Bipyridinyl-5-yl-2-(4-chloro-phenyl)-acetamide) | Structure (SMILES)
1 | ++ | – | FC(F)(F)c1cc(Cl)ccc1CNc1cncc(-c2ccncc2)c1 [Example 11, [3,4′]Bipyridinyl-5-yl-(4-chloro-2-trifluoromethyl-benzyl)-amine]
2 | + | – | CC(O)CNc1cc(-c2cncc(NCc3ccc(Cl)cc3)c2)ccn1 (centres unmarked) [Example 12, 1-[5-(4-Chloro-benzylamino)-[3,4′]bipyridinyl-2′-ylamino]-propan-2-ol]
3 | + | – | CC(C)(C)OC(=O)N1CCCC(CNc2cncc(-c3ccncc3)c2)C1 (centres unmarked) [Example 13, 3-([3,4′]Bipyridinyl-5-ylaminomethyl)-piperidine-1-carboxylic acid tert-butyl ester]
4 | + | – | CC(C)(C)OC(=O)N1CCC(CNc2cncc(-c3ccncc3)c2)CC1 [Example 14, 4-([3,4′]Bipyridinyl-5-ylaminomethyl)-piperidine-1-carboxylic acid tert-butyl ester]
5 | + | – | CC(C)(C)OC(=O)N1CCC(Nc2cncc(-c3ccncc3)c2)CC1 [Example 15, 4-([3,4′]Bipyridinyl-5-ylamino)-piperidine-1-carboxylic acid tert-butyl ester]
6 | ++ | – | c1cc(-c2cncc(NCC3CCCNC3)c2)ccn1 (centres unmarked) [Example 16, [3,4′]Bipyridinyl-5-yl-piperidin-3-ylmethyl-amine]
7 | ++ | – | FC(F)(F)c1cccc(CNc2cncc(-c3ccncc3)c2)c1 [Example 17, [3,4′]Bipyridinyl-5-yl-(3-trifluoromethyl-benzyl)-amine]
8 | +++ | – | FC(F)(F)c1ccc(CNc2cncc(-c3ccncc3)c2)cc1 [Example 18, [3,4′]Bipyridinyl-5-yl-(4-trifluoromethyl-benzyl)-amine]
9 | +++ | – | Fc1cc(Cl)ccc1CNc1cncc(-c2ccncc2)c1 [Example 19, [3,4′]Bipyridinyl-5-yl-(4-chloro-2-fluoro-benzyl)-amine]
10 | + | – | O=C(Nc1cncc(-c2ccncc2)c1)c1ccc(Cl)cc1 [Example 20, N-[3,4′]Bipyridinyl-5-yl-4-chloro-benzamide]
11 | + | – | O=S(=O)(Nc1cncc(-c2ccncc2)c1)c1ccc(Cl)cc1 [Example 21, N-[3,4′]Bipyridinyl-5-yl-4-chloro-benzenesulfonamide]
12 | +++ | – | Fc1ccc(CNc2cncc(-c3ccncc3)c2)c(F)c1 [Example 22, [3,4′]Bipyridinyl-5-yl-(2,4-difluoro-benzyl)-amine]

The remaining lines, values behind:

Row | Structure (SMILES) | ROK activity | ROK activity (listed as N-[3,4′]Bipyridinyl-5-yl-2-(4-chloro-phenyl)-acetamide)
13 | O=C(Cc1ccc(Cl)cc1)Nc1cncc(-c2ccncc2)c1 [Example 1, N-[3,4′]Bipyridinyl-5-yl-2-(4-chloro-phenyl)-acetamide] | + | ++
14 | Fc1cc(CNc2cccc(-c3ccncc3)c2)ccc1Cl [Example 2, (4-Chloro-3-fluoro-benzyl)-(3-pyridin-4-yl-phenyl)-amine] | +++ | –
15 | Fc1cc(CNc2cncc(-c3ccncc3F)c2)ccc1Cl [Example 3, (4-Chloro-3-fluoro-benzyl)-(3′-fluoro-[3,4′]bipyridinyl-5-yl)-amine] | +++ | –
16 | Fc1cc(CNc2cncc(-c3ccnc(Cl)c3)c2)ccc1Cl [Example 4, (2′-Chloro-[3,4′]bipyridinyl-5-yl)-(4-chloro-3-fluoro-benzyl)-amine] | + | –
17 | Fc1cc(CNc2cncc(-c3ccncc3Cl)c2)ccc1Cl [Example 5, (3′-Chloro-[3,4′]bipyridinyl-5-yl)-(4-chloro-3-fluoro-benzyl)-amine] | +++ | –
18 | Fc1cc(CNc2cncc(-c3ccnc(Cl)c3Cl)c2)ccc1Cl [Example 6, (4-Chloro-3-fluoro-benzyl)-(2′,3′-dichloro-[3,4′]bipyridinyl-5-yl)-amine] | + | –
19 | Fc1cc(CNc2cncc(-c3cccc4ncccc34)c2)ccc1Cl [Example 7, (4-Chloro-3-fluoro-benzyl)-(5-quinolin-5-yl-pyridin-3-yl)-amine] | ++ | –
20 | Fc1cc(CNc2cncc(-c3ccnc(Cl)c3F)c2)ccc1Cl [Example 8, (4-Chloro-3-fluoro-benzyl)-(2′-chloro-3′-fluoro-[3,4′]bipyridinyl-5-yl)-amine] | + | –
21 | c1ccc(CNc2cncc(-c3ccncc3)c2)cc1 [Example 9, Benzyl-[3,4′]bipyridinyl-5-yl-amine] | +++ | –
22 | Clc1cccc(Cl)c1CNc1cncc(-c2ccncc2)c1 [Example 10, [3,4′]Bipyridinyl-5-yl-(2,6-dichloro-benzyl)-amine] | + | –
